Reference: publication PMC4729491, “The Cellular Thioredoxin-1/Thioredoxin Reductase-1 Driven Oxidoreduction Represents a Chemotherapeutic Target for HIV-1 Entry Inhibition” (PLoS ONE, 2016)
Read-outs that look alike come from different tables or passages of the source.

Key:
[1] = test system: HIV-1(IIIB); assay type: cell-based
Protocol: Two time-of-drug-addition (TOA) experiments were performed and adopted from previously reported methods. Briefly, MT-4 cells were infected with HIV-1(IIIB) at a multiplicity of infection of 0.5. Following a 1 hour adsorption period, cells were washed, distributed in a 96-well tray at 100,000 cells per 200 μl per well and incubated at 37°C.
For the first experiment, test compounds were added to the infected cell cultures at different time points (i.e. 0, 1, 2, 3, 4, 5, 6, 7, 8, 9, 24, and 25 h) after the start of infection.
In a second experiment, the resolution of the assay was increased by evaluating early time points in more detail. Therefore, the test compounds were added to the infected cell cultures at the following time points after the start of infection: 0, 15, 30, 45, 100 and 180 min; and 24 as well as 25 h.
Product added at time points 0, 15, 30 and 45 min was present at the start of the viral infection and washed away after 1 hour. After washing, fresh product was added to maintain viral suppression throughout the remaining of the experiment.
HIV-1 production was determined at 31 h post infection via a p24 ELISA (Perkin Elmer, Brussels, Belgium).

[2] = test system: HuT-78/HIV-1 and Sup-T1 cells; assay: cells; assay type: cell-based; settings: read-out: IC50 inhibition of syncytia formation
Protocol: Persistently infected HuT-78/HIV-1 cells were thoroughly washed to eliminate free virions. Next, 1 x 10^5 HuT-78/HIV-1 cells were co-cultivated with 1 x 10^5 Sup-T1 cells in 96-well plates (200 μl/well) during 20 h at 37°C, in the presence or absence of a serial dilution of compound. Afterwards, the formation of syncytia was evaluated microscopically. The EC50 was defined as the compound concentration required to suppress syncytia formation by 50%.

[3] = molecular target: T1, HIV-1 protease (Human immunodeficiency virus type 1 group M subtype B, UniProt P04585); assay: p55 cleavage in virus particles from HuT-78/HIV-1 cells (Western blot); assay type: cell-based; settings: 43 h, AZT 3.7 μM, ritonavir 2.8 μM, TE-10 1 and 20 μM
T1 construct: the virus-encoded protease; endogenous in cells; host or cells: persistently infected HuT-78/HIV-1(IIIB) cells and released virus particles
Protocol: In order to confirm the inhibitory effect of TE-10, an additional assay was performed to study the inhibition of the HIV-1 protease by TE-10. Therefore, 2 x 10^5 persistently infected HuT-78/HIV-1 cells were washed thoroughly and seeded in 48-well plates, in the presence or absence of compound. As reference compounds, the RT inhibitor AZT (3.7 μM) and the protease inhibitor ritonavir (2.8 μM) were used, as negative and positive controls, respectively. TE-10 was used at 1 μM and 20 μM. After 43 h of incubation at 37°C, virus-containing cell culture supernatants were harvested and the cells were removed by centrifugation (10 min at ± 900 x g). Then, virus was precipitated from the cell supernatant by centrifugation at ± 3.5 x 10^4 x g for at least 2 h. The viruses were resuspended in PBS and lysed with Triton-X100 (Sigma-Aldrich, Diegem, Belgium). These viral lysates were then subjected to SDS-PAGE and subsequent Western blotting to detect the presence of p24 and its precursor p55, using an anti-p24 antibody (AB9044; final concentration 2.4 μg/ml).

[4] = test system: HIV-1(IIIB); assay: Antiviral activity in PHA-stimulated PBMCs (p24 ELISA), HIV-1(IIIB); assay type: cell-based; settings: Human immunodeficiency virus 1, IIIB, PBMC, read-out: EC50 HIV-1 (IIIB)
Protocol: (§1) To test the antiviral activity in fresh, PHA-stimulated PBMCs, an experiment was performed as previously described. Briefly, the cells were preincubated with HIV-1(IIIB), HIV-1(BaL) or HIV-1(HE) for 1 h at 37°C, using a viral load of 1000 x CCID50 per ml. Then, cell suspensions containing virus and 2 x 10^5 PBMCs were seeded in a 96-well microtiter plate and a serial dilution of compound was added, in a total volume of 200 μl. After 4 days, the cells were passaged and fresh culture medium, containing IL-2 and compound, was added. Three days later, cellular supernatants were harvested and viral replication in the presence of the compounds was quantified using a p24 enzyme-linked immunosorbent assay (ELISA) (Perkin Elmer, Brussels, Belgium). The half maximal effective concentration (EC50) was defined as the compound concentration that is required to block viral replication by 50%.

[5] = test system: HeLa cells; assay: Cytostatic activity assay, HeLa cells; assay type: cell-based; settings: Homo sapiens, 72 h, read-out: IC50 HeLa
Protocol: (§2) The cytostatic activity assay using transformed cell lines was also performed in 96-well microtiter plates. 5–7.5 x 10^4 human CD4^+ T-lymphocyte CEM or human cervix carcinoma HeLa cells and a given amount of the test compounds were added to each well. The cells were allowed to proliferate for 72 h (96 h for HeLa) at 37°C in a humidified CO2-controlled atmosphere. At the end of the incubation period, the cells were counted in a Coulter counter (type ZM, Coulter Electronics, Analis, Ghent, Belgium).

[6] = previously known structural properties ref 20-22; cited from earlier work
[7] = test system: HIV-1(BaL); assay: Antiviral activity in PHA-stimulated PBMCs (p24 ELISA), HIV-1(BaL); assay type: cell-based; settings: Human immunodeficiency virus 1, BAL, PBMC, read-out: EC50 HIV-1 (BAL)
Protocol: as §1

[8] = test system: HIV-1; assay: Infectivity (TZM-bl) of virus particles produced by ACH-2 cells in presence of compound; assay type: cell-based; settings: for carry-over control: residual compound as cause of decreased infectivity: compound added at 1/100 of concentration in viral growth culture
Protocol: To measure the infectivity of particles produced in the presence of the compounds, washed persistently HIV-1-infected ACH-2 cells (1 x 10^6 cells/ml) were cultured with 100 nM PMA in the presence of the indicated concentration of compounds. After 3 days, the p24 content of the clarified supernatant (see virus expression) was measured. The cell supernatant was then used for an infectivity test (see infectivity assay) without the further addition of any compound to the cultures. The final dilution of the ACH-2 supernatant in the infectivity test was 1:100. A control experiment was performed, in which virus particles produced without the addition of compound, were used for the infectivity test. Additionally, the same amount of compound that could have been carried over with the virus containing supernatant in the original experiment was added to the infectivity test (final concentration: 1/100 of the indicated amount in the viral growth culture).

[9] = test system: HIV-1; assay: Infectivity assay in TZM-bl cells (luciferase); settings: TZM-bl, 40 h
Protocol: TZM-bl cells (1 x 10^5) were infected with diluted virus suspension (see virus expression) in a total volume of 0.2 ml DMEM medium in the presence of the compounds or an inhibitor control (nevirapine). After 40 h at 37°C, the luminescence was assayed and quantified in a Luminoskan Ascent (Thermo Labsystems, Schwerte, Germany) for luciferase activity using the OneGlo luciferase assay system (Promega, Nacka, Sweden).

[10] = molecular target: T1, HIV-1 protease; assay: HIV-1 protease inhibition (SensoLyte 520 kit); assay type: biochemical; settings: 25 μM
Protocol: The ability of the compounds to inhibit the activity of recombinant HIV-1 protease was determined by a SensoLyte 520 HIV-1 protease assay kit (AnaSpec Inc., Fremont, CA) according to the manufacturer’s instructions. Compounds (10 μl of a 250 μM, solution, giving a final concentration of 25 μM in the reaction mixture) and 40 μl HIV-1 protease (100 ng/well; AnaSpec Inc.) were added to a dark-bottom 96-well plate. Pepstatin A was included as an inhibitor control. The plate as well as the HIV-1 protease substrate solution (provided) were incubated for 15 minutes at 37°C and 50 μl protease substrate was added to all wells. The fluorescence was measured at Ex/Em = 490 nm/520 nm with a Varioskan Flash (Thermo Electron Corporation, Schwerte, Germany).

[11] = test system: HIV-1(HE); assay: Antiviral activity in PHA-stimulated PBMCs (p24 ELISA), HIV-1(HE); assay type: cell-based; settings: Human immunodeficiency virus 1, PBMC, read-out: EC50 HIV-1 (HE)
Protocol: as §1

[12] = test system: HIV-1(IIIB); assay: microbe, parasite or virus in culture; assay type: cell-based; settings: for Ratio IC50/EC50 HIV-1 (CEM): CEM cells; for EC50: Human immunodeficiency virus 1, IIIB, CCRF-CEM
Protocol: (§3) To study the antiviral activity in transformed cells, CEM cells were suspended in fresh culture medium and infected with HIV-1(IIIB) or HIV-2(ROD) at 100 x CCID50 (cell culture infective dose 50%) per ml of cell suspension. Infected cell suspension (100 μl; 3 x 10^5 cells/ml) was transferred to a 96-well microplate, mixed with 100 μl of the appropriate dilutions of compounds, and further incubated at 37°C. After 4 days, giant cell formation was recorded microscopically and the number of giant cells was estimated microscopically as percentage of the number of giant cells present in the non-treated virus-infected cell cultures.

[13] = test system: CEM cells; assay: Cytostatic activity assay, CEM cells; assay type: cell-based; settings: Homo sapiens, CCRF-CEM, 72 h; inhibition of cell proliferation by 50%, three-day drug-exposed; mean ± SD
Protocol: as §2

[14] = test system: HIV-2(ROD); assay: Inhibition of HIV-2(ROD)-induced giant cell formation in CEM cell cultures; assay type: cell-based; settings: for Ratio IC50/EC50 HIV-2 (CEM): CEM cells; for EC50: Human immunodeficiency virus 2, CCRF-CEM, read-out: EC50 HIV-2 (ROD)
Protocol: as §3

[15] = test system: PHA-stimulated PBMCs; assay: Toxicity in PHA-stimulated PBMCs (trypan blue cell counting); assay type: cell-based, human; settings: Homo sapiens, PBMC, 168 h, read-out: IC50 PBMC
Protocol: A similar experiment was performed to study the toxicity of the compounds in fresh, PHA-stimulated, PBMCs. Mock-infected PBMCs (2 x 10^5 cells) were exposed to a serial dilution of compound, in a total volume of 200 μl. Cells were passaged after 4 days. Cell survival and proliferation was assessed at day 7 using trypan blue-based cell counting with the Countess Automated Cell Counter (Invitrogen, Ghent, Belgium). The IC50 was defined as the concentration of the compound that inhibited cell proliferation by 50%.

[16] = Human immunodeficiency virus 1, SUP-T1, 24 h

| SMILES | p55 cleavage in viral particles (Western blot) [3] | EC50 [4] [µM] | IC50 [5] [µM] | Hydrophobicity [6] | EC50 [7] [µM] | carry-over control: residual compound as cause of decreased infectivity [8] | EC50 [11] [µM] | Ratio IC50/EC50 HIV-1 (CEM) [12] | EC50 ([12]; read-out: EC50 HIV-1 (IIIB)) [µM] | IC50 [13] [µM] | Ratio IC50/EC50 HIV-2 (CEM) [14] | EC50 [14] [µM] | IC50 [15] [µM] | IC50 [2, 16] [µM] | also measured |
| --- | --- | --- | --- | --- | --- | --- | --- | --- | --- | --- | --- | --- | --- | --- | --- |
| c1cc(CN2CCCNCCNCCCNCC2)ccc1CN1CCCNCCNCCCNCC1 [AMD3100] | – | – | – | – | – | – | – | – | – | – | – | – | – | – | inhibition in time-of-addition assay ([1]; 625 nM): fully inhibitory; time post-infection at which activity is lost ([1]; MT-4 cells, second TOA experiment, DS-8000 12.5 μM, AMD3100 625 nM): 30 to 45 min; IC50 ([2]; Human immunodeficiency virus 1, cocultures of HuT-78/HIV-1 and Sup-T1 cells, ~24 hours): 9.3 ± 4.3 µM |
| Cc1cn([C@H]2C[C@H](N=[N+]=[N-])[C@@H](CO)O2)c(=O)[nH]c1=O [AZT, 3’-azido-2’,3’-dideoxythymidine] | allow efficient p55 cleavage | – | – | – | – | – | – | – | – | – | – | – | – | – | time after virus infection that addition could be delayed without losing inhibitory activity ([1]; MT-4 cells, p24 ELISA at 31 h, AZT 1.9 μM, ritonavir 277 nM): at least 3 h |
| COC(=O)CCN(CCC(=O)OC)c1ccc([Te]c2ccc(N(CCC(=O)OC)CCC(=O)OC)cc2)cc1 [TE-10, bis[4-(N,N-di(2-carbomethoxyethyl)amino)phenyl]telluride] | allow efficient p55 cleavage | 12 ± 4 | 128 ± 29 | Hydrophobic | 12 ± 10 | could not be explained by the presence of residual compound | 6.6 ± 2.1 | 16 | 16 ± 7.9 | ≥ 250 | 17 | 15 ± 2.6 | 19 ± 2 | > 250 | fold higher concentration for similar inhibition of luminescence signal than the other organotellurium compounds [9]: approximately 10 fold; decrease of protease activity [10]: 50%; EC50 ([12]; read-out: EC50 (range given)): 15 to 16 µM |
| CN(C)c1ccc([Te]CCCOc2ccccc2)cc1 [TE-14, N,N-dimethyl-4-aminophenyl 3-phenoxypropyl telluride] | – | 4.9 ± 2.1 | 25 ± 4 | Hydrophobic | 9.6 ± 10 | could not be explained by the presence of residual compound | 5.4 ± 3 | 26 | 0.86 ± 0.21 | 22 ± 2 | 16 | 1.4 ± 0.56 | 9.9 ± 2.5 | > 250 | infectivity of virus particles produced in presence of compound (normalized for equal p24) ([8]; ACH-2 cultures exposed to compound 3 days, supernatant 1:100 titrated on TZM-bl): substantially less infectious virus particles |
